Data: the supplement of paper PMC10627819

What was measured:
Assay in all cases: fitness (endpoint OD595 vs no drug) (fraction); higher = more growth
S. aureus DSM 20231 = test system: S. aureus DSM 20231
How it was run: (§1)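 Cultures at OD595 0.01 were dispensed into 384-well plates in TSB, LB Lennox or CY and incubated at 37 °C. Every 30 min for 14 h, OD595 was read and corrected by the first reading. Fitness is the optical density at entry into stationary phase relative to the robust mean of no-drug control wells, capped at 1.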

B. subtilis 168 = test system: B. subtilis 168
How it was run: as §1

S. aureus Newman = test system: S. aureus Newman
How it was run: as §1

N[C@@H]1CONC1=O [Cycloserine D] + CC1=C\[C@@H](O)CC(=O)Cc2nc(co2)C(=O)N2CCC=C2C(=O)O[C@H](C(C)C)[C@H](C)/C=C/C(=O)NC\C=C\1 [Virginiamycin M1]
fitness
Conditions	first compound 0.125 µg/mL	first compound 0.25 µg/mL	first compound 0.375 µg/mL	first compound 0.5 µg/mL	first compound 0.75 µg/mL	first compound 1.5 µg/mL
B. subtilis 168, partner 0.0625 µg/mL	0.967	0.971	–	0.852	–	–
B. subtilis 168, partner 0.125 µg/mL	0.922	0.909	–	0.916	–	–
B. subtilis 168, partner 0.25 µg/mL	0.921	0.906	–	≥ 1	–	–
S. aureus DSM 20231, partner 0.0625 µg/mL	–	–	≥ 1	–	≥ 1	0.955
S. aureus DSM 20231, partner 0.125 µg/mL	–	–	≥ 1	–	≥ 1	≥ 1
S. aureus DSM 20231, partner 0.25 µg/mL	–	–	0.999	–	1	≥ 1
S. aureus Newman, partner 0.0625 µg/mL	–	–	≥ 1	–	0.969	0.985
S. aureus Newman, partner 0.125 µg/mL	–	–	≥ 1	–	0.98	0.991
S. aureus Newman, partner 0.25 µg/mL	–	–	≥ 1	–	1	0.981

fitness, one replicate
Conditions	first compound 0.375 µg/mL	first compound 0.75 µg/mL	first compound 1.5 µg/mL
S. aureus DSM 20231, partner 0.5 µg/mL	0.996	0.99	0.999
S. aureus DSM 20231, partner 1 µg/mL	0.958	0.984	0.908
S. aureus Newman, partner 0.5 µg/mL	0.914	0.934	≥ 1
S. aureus Newman, partner 1 µg/mL	≥ 1	0.967	0.882
S. aureus Newman, partner 2 µg/mL	0.888	0.931	0.769

N[C@@H]1CONC1=O [Cycloserine D] + CCCCCCCCCC(=O)N[C@@H]1[C@H]([C@@H]([C@H](O[C@H]1OC2=C3C=C4C=C2OC5=C(C=C(C=C5)[C@H]([C@H]6C(=O)N[C@@H](C7=C(C(=CC(=C7)O)OC8[C@H]([C@H]([C@@H]([C@H](O8)CO)O)O)O)C9=C(C=CC(=C9)[C@H](C(=O)N6)NC(=O)[C@@H]4NC(=O)[C@@H]1C2=CC(=CC(=C2)OC2=C(C=CC(=C2)[C@H](C(=O)N[C@H](CC2=CC(=C(O3)C=C2)Cl)C(=O)N1)N)O)O)O)C(=O)O)O[C@H]1[C@@H]([C@H]([C@@H]([C@H](O1)CO)O)O)NC(=O)C)Cl)CO)O)O [Teicoplanin]
fitness, main component drawn
Conditions	first compound 0.375 µg/mL	first compound 0.75 µg/mL	first compound 1.5 µg/mL
S. aureus DSM 20231, partner 0.1562 µg/mL	≥ 1	≥ 1	0.989
S. aureus DSM 20231, partner 0.3125 µg/mL	≥ 1	≥ 1	≥ 1
S. aureus DSM 20231, partner 0.625 µg/mL	≥ 1	≥ 1	≥ 1
S. aureus Newman, partner 0.1562 µg/mL	≥ 1	≥ 1	0.975
S. aureus Newman, partner 0.3125 µg/mL	≥ 1	≥ 1	≥ 1
S. aureus Newman, partner 0.625 µg/mL	0.865	0.779	0.77

fitness, S. aureus Newman, one replicate, main component drawn
Conditions	first compound 0.375 µg/mL	first compound 0.75 µg/mL	first compound 1.5 µg/mL
partner 0.62 µg/mL	0.831	0.783	0.894
partner 1.24 µg/mL	0.745	0.694	0.743
partner 2.48 µg/mL	0.368	0.341	0.377

N[C@@H]1CONC1=O [Cycloserine D] + CCN(CC)CCOC(=O)c1ccc(N)cc1 [Procaine]
fitness
Conditions	first compound 0.125 µg/mL	first compound 0.25 µg/mL	first compound 0.375 µg/mL	first compound 0.5 µg/mL	first compound 0.75 µg/mL	first compound 1.5 µg/mL
B. subtilis 168, partner 85.5 µg/mL	0.95	0.899	–	0.921	–	–
B. subtilis 168, partner 171 µg/mL	0.908	0.851	–	0.894	–	–
B. subtilis 168, partner 342 µg/mL	0.925	0.874	–	0.907	–	–
S. aureus DSM 20231, partner 85.5 µg/mL	–	–	0.979	–	0.982	0.981
S. aureus DSM 20231, partner 171 µg/mL	–	–	0.996	–	0.998	≥ 1
S. aureus DSM 20231, partner 342 µg/mL	–	–	≥ 1	–	0.966	≥ 1
S. aureus Newman, partner 85.5 µg/mL	–	–	≥ 1	–	≥ 1	≥ 1
S. aureus Newman, partner 171 µg/mL	–	–	0.993	–	≥ 1	≥ 1
S. aureus Newman, partner 342 µg/mL	–	–	≥ 1	–	≥ 1	≥ 1

N[C@@H]1CONC1=O [Cycloserine D] + CN1C2=CC=CC=C2N=C3C1=CC=CC3=O [Pyocyanin]
fitness
Conditions	first compound 0.125 µg/mL	first compound 0.25 µg/mL	first compound 0.375 µg/mL	first compound 0.5 µg/mL	first compound 0.75 µg/mL	first compound 1.5 µg/mL
B. subtilis 168, partner 1.25 µg/mL	0.878	0.871	–	0.877	–	–
B. subtilis 168, partner 2.5 µg/mL	0.833	0.781	–	0.828	–	–
B. subtilis 168, partner 5 µg/mL	0.697	0.667	–	0.623	–	–
S. aureus DSM 20231, partner 1.25 µg/mL	–	–	0.983	–	0.985	0.962
S. aureus DSM 20231, partner 2.5 µg/mL	–	–	0.884	–	0.875	0.865
S. aureus DSM 20231, partner 5 µg/mL	–	–	0.826	–	0.855	0.777
S. aureus Newman, partner 1.25 µg/mL	–	–	0.85	–	0.856	0.868
S. aureus Newman, partner 2.5 µg/mL	–	–	0.8	–	0.764	0.826
S. aureus Newman, partner 5 µg/mL	–	–	0.457	–	0.378	0.42
